Test results from ChEMBL document CHEMBL1201862, “PubChem BioAssay data set” (2004).
One block for each compound: values may come before it. Active and inactive are the calls of the source.

How the values were obtained:
[1] = target: T1, Lysosomal acid glucosylceramidase (Homo sapiens, UniProt P04062); test: Dose response cell-based high throughput screening assay to identify enhancers of beta-glucosidase activity. [Related pubchem assays: 784 ]; format: functional
T1 sequence (P04062 whole entry): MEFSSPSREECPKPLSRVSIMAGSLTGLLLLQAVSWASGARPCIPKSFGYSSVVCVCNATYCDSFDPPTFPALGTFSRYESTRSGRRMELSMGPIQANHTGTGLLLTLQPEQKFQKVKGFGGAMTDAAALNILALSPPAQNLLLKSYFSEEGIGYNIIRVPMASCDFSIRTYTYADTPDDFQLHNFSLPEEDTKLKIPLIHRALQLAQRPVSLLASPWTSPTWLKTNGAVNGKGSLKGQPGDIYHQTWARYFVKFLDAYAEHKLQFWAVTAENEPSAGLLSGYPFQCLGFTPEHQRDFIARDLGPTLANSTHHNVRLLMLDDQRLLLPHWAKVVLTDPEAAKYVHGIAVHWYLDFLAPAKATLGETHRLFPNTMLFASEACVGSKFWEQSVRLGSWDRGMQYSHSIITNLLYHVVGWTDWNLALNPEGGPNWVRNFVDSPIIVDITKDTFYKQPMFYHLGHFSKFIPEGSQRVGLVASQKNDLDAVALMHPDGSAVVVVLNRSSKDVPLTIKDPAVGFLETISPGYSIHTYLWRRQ

Ion channel NompC = Ion channel NompC (Danio rerio, UniProt Q7T1G6); test: Fluorescence counterscreen assay for TRPML3 agonists: dose response cell-based high-throughput screening assay to identify agonists of the transient receptor potential channel N1 (TRPN1). [Related pubchem assays: 1526, 1424, 1448 ]; format: functional
Ion channel NompC, sequence (Q7T1G6 whole entry): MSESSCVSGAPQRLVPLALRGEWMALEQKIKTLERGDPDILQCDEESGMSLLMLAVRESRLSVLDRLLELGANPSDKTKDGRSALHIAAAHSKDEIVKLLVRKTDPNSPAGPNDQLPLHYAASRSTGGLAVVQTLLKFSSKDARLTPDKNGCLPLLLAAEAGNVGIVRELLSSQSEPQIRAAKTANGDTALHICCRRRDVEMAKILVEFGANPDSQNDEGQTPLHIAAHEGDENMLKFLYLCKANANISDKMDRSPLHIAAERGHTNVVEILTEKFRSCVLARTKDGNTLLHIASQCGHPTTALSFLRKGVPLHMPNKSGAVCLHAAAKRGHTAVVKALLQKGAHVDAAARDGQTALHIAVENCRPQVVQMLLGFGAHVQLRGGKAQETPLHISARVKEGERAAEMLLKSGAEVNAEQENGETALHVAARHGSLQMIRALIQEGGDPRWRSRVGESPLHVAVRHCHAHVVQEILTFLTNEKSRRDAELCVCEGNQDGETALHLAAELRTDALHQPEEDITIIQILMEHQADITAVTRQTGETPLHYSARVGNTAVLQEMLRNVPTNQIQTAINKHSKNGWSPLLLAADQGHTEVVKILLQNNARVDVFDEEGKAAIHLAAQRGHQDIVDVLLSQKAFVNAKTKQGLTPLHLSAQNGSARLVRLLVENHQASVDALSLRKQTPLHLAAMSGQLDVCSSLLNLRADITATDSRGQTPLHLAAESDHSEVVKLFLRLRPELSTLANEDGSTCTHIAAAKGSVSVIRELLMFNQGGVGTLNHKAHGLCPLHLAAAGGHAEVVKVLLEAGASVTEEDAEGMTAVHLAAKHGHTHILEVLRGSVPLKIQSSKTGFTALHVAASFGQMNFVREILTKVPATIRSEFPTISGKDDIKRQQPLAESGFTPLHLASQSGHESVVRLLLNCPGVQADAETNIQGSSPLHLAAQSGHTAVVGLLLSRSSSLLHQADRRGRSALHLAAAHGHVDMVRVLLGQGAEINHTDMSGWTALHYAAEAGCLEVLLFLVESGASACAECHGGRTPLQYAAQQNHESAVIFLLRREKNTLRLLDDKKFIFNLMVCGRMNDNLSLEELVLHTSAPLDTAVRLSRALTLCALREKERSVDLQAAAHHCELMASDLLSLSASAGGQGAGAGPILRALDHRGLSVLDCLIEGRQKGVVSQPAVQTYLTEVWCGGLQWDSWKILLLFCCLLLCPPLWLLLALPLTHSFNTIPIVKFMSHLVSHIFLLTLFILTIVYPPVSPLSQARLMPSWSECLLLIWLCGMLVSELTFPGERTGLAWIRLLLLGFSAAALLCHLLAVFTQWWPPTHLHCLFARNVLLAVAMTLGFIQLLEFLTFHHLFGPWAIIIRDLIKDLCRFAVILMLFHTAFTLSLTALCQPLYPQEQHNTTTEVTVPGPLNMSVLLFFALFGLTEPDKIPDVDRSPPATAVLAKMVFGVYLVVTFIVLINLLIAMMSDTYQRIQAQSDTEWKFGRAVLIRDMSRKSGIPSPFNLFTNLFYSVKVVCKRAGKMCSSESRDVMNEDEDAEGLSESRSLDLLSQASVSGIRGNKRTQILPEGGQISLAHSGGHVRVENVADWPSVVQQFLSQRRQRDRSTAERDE

Mucolipin-3 = target: T2, Mucolipin-3 (Homo sapiens, UniProt Q8TDD5); test: Dose response cell-based high-throughput screening assay for agonists of the transient receptor potential channel ML3 (TRPML3). [Related pubchem assays: 1526, 1424, 1448 ]; format: functional
T2 sequence (Q8TDD5 whole entry): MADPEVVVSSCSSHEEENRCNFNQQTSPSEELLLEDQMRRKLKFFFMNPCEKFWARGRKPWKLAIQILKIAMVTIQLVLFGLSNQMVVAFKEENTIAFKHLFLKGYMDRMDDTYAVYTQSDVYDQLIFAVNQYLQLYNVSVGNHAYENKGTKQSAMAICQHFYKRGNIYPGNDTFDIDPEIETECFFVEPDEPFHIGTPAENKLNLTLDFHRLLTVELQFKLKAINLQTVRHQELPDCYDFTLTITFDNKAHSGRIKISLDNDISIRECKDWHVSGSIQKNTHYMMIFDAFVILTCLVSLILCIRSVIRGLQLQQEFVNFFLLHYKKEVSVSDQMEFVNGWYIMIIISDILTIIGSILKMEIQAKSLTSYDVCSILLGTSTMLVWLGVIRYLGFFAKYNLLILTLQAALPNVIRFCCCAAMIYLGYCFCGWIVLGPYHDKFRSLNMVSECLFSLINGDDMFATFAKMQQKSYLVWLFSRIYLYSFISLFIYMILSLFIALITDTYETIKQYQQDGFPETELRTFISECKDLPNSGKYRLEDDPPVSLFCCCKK

[2] = target: Heat shock protein HSP 90-alpha (Homo sapiens, UniProt P07900); test: Luminescence-based dose response biochemical high throughput screening assay for inhibitors of the Heat Shock Protein 90 (HSP90). [Related pubchem assays: 1831 (Summary AID.), 1846 (Confirmation screen.), 1789 (Primary screen.)]
[3] = target: T3, Oxysterols receptor LXR-beta (Homo sapiens, UniProt P55055); format: functional, cell-based;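 further: Cell-based luminescence dose-response assay of agonist activity at LXR, run as a confirmatory counterscreen to a daf-12 agonist screen; HEK293 cells with Gal4-LXR fusion and GAL4-driven luciferase reporter; agonist potency from rising luciferase signal of a Gal4-LXR reporter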
T3 sequence (P55055 whole entry): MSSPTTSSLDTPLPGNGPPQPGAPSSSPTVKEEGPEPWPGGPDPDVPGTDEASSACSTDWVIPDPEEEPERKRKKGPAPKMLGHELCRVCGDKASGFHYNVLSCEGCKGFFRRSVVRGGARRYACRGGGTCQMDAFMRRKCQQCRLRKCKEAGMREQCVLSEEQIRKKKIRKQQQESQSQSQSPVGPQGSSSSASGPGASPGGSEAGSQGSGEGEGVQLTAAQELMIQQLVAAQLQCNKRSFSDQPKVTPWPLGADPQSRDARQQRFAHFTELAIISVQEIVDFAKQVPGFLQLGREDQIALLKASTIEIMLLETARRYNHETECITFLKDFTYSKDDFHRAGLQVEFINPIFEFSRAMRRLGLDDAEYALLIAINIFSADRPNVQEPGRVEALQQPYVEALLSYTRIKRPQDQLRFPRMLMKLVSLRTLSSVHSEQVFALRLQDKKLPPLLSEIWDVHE

[4] = blockade of melanocortin 4 receptor signaling – cell-based, plate reader, cherry pick, counter-screen for LGR2 antagonist project, dose response (AID 743444); format: functional;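 further: transfected HEK 293 cells stimulated with alpha-MSH peptide; potency of inhibitors of the alpha-MSH evoked signal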
cells [5] = test: cells
[6] = A549 cell cytotoxicity, dose response, cytotoxicity control, plate reader, cherry-pick, antagonist series (AID 743412); format: functional, cell-based
[7] = toxicity toward HepG2 liver cells – cell-based, plate reader, cherry-pick, antagonist series, cytotoxicity control, dose response (AID 743416); format: functional
[8] = blockers of bursicon-stimulated LGR2 cAMP reporter – cell-based, HEK293, CRE-luciferase reporter, cherry pick, set 2, dose response (AID 743343); format: functional;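 further: transfected cells were stimulated with diluted bursicon conditioned medium after compound addition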
Prothrombin = Prothrombin (Homo sapiens, UniProt P00734); test: Thrombin 1536 HTS Dose Response Confirmation. [Related pubchem assays: 1046 (Thrombin 1536 HTS; hits were confirmed in this assay)]; format: functional
Cytochrome P450 2C19 = Cytochrome P450 2C19 (Homo sapiens, UniProt P33261); test: Cytochrome panel assay with activity outcomes. Panel member name: p450-cyp2c19 Compounds with AC50 equal or less than 10 uM are considered active; format: functional; conditions: read-out: AC50
Cytochrome P450 2C19, sequence (P33261 whole entry): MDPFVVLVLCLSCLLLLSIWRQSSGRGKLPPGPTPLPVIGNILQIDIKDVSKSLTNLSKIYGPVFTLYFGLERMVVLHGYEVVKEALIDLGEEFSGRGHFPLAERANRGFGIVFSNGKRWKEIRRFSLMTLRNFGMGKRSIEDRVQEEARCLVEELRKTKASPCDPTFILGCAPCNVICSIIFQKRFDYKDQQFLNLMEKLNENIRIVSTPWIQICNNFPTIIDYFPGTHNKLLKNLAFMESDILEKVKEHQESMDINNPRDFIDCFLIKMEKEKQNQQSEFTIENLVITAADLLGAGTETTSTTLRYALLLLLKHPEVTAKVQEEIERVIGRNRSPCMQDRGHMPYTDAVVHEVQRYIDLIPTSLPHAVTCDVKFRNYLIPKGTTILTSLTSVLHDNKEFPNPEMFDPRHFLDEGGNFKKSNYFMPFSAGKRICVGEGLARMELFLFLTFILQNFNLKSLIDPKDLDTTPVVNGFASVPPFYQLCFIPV

Cytochrome P450 3A4 = Cytochrome P450 3A4 (Homo sapiens, UniProt P08684);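 further: CYP3A4 tested as one member of a cytochrome P450 panel screen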
Cytochrome P450 3A4, sequence (P08684 whole entry): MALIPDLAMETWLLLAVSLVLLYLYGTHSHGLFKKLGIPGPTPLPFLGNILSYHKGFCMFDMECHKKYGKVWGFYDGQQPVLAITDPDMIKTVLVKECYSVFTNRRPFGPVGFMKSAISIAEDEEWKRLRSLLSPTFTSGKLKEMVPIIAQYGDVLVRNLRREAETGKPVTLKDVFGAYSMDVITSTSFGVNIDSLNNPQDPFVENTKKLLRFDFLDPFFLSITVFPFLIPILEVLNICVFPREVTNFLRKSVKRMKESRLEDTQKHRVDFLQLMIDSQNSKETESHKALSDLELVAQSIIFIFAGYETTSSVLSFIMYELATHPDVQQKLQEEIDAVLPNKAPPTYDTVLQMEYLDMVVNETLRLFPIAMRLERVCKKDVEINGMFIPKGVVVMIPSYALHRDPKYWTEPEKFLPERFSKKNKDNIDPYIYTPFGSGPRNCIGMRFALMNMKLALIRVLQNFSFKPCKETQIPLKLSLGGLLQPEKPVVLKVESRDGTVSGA

[9] = target: Protein-tyrosine kinase 2-beta (Homo sapiens, UniProt Q14289);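 further: potency of inhibitors of PYK2 kinase phosphorylation of poly-GT substrate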
Protein-tyrosine kinase 2-beta, sequence (Q14289 whole entry): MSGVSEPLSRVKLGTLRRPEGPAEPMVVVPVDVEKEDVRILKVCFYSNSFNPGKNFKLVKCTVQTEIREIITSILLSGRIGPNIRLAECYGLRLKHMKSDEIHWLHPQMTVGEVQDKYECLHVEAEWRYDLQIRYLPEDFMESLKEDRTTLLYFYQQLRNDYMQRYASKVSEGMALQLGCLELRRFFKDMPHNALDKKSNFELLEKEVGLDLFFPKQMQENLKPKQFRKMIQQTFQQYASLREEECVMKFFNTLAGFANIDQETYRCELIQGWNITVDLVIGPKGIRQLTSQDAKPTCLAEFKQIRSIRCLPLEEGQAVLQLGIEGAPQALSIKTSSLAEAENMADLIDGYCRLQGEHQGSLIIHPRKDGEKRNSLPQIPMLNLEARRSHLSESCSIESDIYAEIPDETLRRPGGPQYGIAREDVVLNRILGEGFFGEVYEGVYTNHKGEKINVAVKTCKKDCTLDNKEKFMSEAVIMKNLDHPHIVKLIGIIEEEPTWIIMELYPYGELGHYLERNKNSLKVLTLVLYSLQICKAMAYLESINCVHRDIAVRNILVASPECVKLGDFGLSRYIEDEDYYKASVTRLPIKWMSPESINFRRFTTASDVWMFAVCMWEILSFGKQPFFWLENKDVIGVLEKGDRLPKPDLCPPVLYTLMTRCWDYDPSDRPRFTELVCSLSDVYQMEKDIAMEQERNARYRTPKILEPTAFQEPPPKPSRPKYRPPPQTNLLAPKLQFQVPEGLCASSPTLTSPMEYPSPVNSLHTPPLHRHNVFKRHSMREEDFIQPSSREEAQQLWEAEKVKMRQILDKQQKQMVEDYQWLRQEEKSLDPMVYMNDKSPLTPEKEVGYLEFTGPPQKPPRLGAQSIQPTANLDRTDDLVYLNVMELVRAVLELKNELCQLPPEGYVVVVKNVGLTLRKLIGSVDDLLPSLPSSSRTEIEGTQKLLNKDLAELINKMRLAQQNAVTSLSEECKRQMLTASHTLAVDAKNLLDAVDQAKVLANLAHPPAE

fMet-Leu-Phe receptor = target: T4, fMet-Leu-Phe receptor (Homo sapiens, UniProt P21462); test: formyl peptide receptor binders – dose response (AID 519); format: functional
T4 sequence (P21462 whole entry): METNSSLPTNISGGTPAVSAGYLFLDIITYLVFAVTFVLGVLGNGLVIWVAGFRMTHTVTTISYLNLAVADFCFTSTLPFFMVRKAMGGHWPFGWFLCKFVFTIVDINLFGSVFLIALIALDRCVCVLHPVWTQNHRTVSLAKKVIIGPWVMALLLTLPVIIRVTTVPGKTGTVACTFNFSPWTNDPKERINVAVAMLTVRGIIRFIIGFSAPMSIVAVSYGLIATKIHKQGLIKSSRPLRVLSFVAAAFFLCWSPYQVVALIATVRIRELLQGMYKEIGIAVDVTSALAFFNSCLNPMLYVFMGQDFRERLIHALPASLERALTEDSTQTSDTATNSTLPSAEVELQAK

cells [10] = format: functional, cell-based
cells [11] = format: functional, cell-based; remark: listed apart in the source
[12] = viability loss in HEK293 cells – cell-based, plate reader, cherry-picked samples, cytotoxicity control, dose response (AID 743446); format: functional
[13] = Luminescence Cell-Based Dose Confirmation HTS to Identify Inhibitors of Platelet Dense Granule Release. [Related pubchem assays: 1663 (Primary HTS), 1678 (Summary of Project)]; format: functional
HT-1080 = test: HT1080 cell viability loss – fluorescence readout (AID 620); format: functional, cell-based; conditions: Homo sapiens
[14] = target: T5, Luciferin 4-monooxygenase (Photinus pyralis, UniProt P08659); test: inhibition of purified Photinus pyralis luciferase – biochemical, luminescence, dose response (AID 1891)
T5 sequence (P08659 whole entry): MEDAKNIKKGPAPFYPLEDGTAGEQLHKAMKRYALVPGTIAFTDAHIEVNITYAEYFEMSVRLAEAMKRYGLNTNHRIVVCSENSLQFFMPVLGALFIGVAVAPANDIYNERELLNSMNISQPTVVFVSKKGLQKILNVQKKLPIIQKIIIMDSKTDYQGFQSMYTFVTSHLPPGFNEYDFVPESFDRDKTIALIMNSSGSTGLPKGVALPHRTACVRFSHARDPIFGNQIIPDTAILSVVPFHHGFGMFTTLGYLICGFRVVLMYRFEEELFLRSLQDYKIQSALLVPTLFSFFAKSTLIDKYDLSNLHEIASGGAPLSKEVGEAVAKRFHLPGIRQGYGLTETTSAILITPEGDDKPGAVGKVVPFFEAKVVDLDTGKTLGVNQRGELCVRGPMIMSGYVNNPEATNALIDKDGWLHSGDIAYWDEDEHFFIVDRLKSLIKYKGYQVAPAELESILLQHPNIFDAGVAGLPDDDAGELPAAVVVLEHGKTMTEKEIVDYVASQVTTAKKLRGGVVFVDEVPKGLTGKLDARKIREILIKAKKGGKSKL

[15] = target: T5, Luciferin 4-monooxygenase; test: Counter Screen for Luciferase-based Assay Positives. [Related pubchem assays: 620, 618, 411 ]
[16] = OVCAR-3 cell viability loss – plate reader, dry powder samples, PAX8 inhibitor project, dose response (AID 743044); format: functional, cell-based
[17] = OVCAR8 cell viability loss – plate reader, dry powder samples, PAX8 project, dose response (AID 743197); format: functional, cell-based; conditions: OVCAR-8
Paired box protein Pax-8 = Paired box protein Pax-8 (Homo sapiens, UniProt Q06710); test: PAX8 transcriptional activity inhibition in RMG-I – RMG-I cells, luciferase, cherry-pick, dose response (AID 687027); format: functional, cell-based;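 further: luciferase reporter driven by Pax8 target thyroperoxidase promoter measured by SteadyGlo luminescence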
Paired box protein Pax-8, sequence (Q06710 whole entry): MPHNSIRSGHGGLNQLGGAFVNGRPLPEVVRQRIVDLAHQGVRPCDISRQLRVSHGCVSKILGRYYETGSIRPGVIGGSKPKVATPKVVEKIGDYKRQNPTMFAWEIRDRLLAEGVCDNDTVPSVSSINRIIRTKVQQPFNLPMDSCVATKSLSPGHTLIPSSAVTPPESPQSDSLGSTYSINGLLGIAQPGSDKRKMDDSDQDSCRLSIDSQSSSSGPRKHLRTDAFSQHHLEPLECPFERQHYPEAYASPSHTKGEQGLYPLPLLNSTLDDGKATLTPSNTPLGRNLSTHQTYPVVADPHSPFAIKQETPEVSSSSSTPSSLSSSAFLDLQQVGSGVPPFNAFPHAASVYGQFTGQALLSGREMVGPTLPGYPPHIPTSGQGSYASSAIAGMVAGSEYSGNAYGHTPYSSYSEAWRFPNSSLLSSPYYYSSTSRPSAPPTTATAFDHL

[18] = IGROV1 cell killing – plate reader, dry powder samples, PAX8 inhibitor project, dose response (AID 743043); format: functional, cell-based; conditions: IGROV-1
Cytochrome P450 1A2 = target: T6, Cytochrome P450 1A2 (Homo sapiens, UniProt P05177);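 further: PubChem cytochrome P450 panel assay, CYP1A2 panel member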
T6 sequence (P05177 whole entry): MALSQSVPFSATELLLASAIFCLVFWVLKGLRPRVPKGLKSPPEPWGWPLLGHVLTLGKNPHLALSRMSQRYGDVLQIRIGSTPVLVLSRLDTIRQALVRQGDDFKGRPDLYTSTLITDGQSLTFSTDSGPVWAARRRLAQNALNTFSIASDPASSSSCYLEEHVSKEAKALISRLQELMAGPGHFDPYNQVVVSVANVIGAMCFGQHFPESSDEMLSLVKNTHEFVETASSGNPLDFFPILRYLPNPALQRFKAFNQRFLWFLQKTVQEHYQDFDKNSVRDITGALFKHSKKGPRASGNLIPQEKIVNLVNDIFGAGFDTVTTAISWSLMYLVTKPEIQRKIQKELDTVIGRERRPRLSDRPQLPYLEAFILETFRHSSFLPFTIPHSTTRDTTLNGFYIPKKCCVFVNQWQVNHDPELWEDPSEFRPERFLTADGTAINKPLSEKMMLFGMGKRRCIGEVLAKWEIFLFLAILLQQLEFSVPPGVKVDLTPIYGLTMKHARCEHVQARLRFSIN

Compound: Cc1nc(C)c(-c2csc(NCc3ccco3)n2)s1
- EC50 [1]: > 50 µM (not active)

Compound: COc1ccc(CCNC(=O)COc2ccc(N(C)S(=O)(=O)c3ccc(Cl)cc3)cc2)cc1
- EC50 (Ion channel NompC): > 29.9 µM (not active)
- EC50 (Mucolipin-3): 6.34 µM (active)

Compound: Cc1ccc(S(=O)(=O)N2CCC(C)CC2)c([N+](=O)[O-])c1
- EC50 (Ion channel NompC): > 29.9 µM (not active)
- EC50 (Mucolipin-3): 3.83 µM (active)

Compound: Cc1cc(-c2ccccc2)n2ncc(-c3ccccc3)c2n1
- EC50 [3]: > 67.5 µM (inactive)
- AC50 [4]: 7.1 µM (active)
- EC50 (cells [5]): > 67.5 µM (inactive)
- AC50 [6]: > 52 µM (inactive)
- AC50 [7]: 39.3 µM (active)
- AC50 [8]: 4.98 µM (active)

Compound: Cc1n[nH]c(C)c1N=Nc1cc(Cl)ccc1Cl
- AC50 (Cytochrome P450 2C19): 1.12 µM (inconclusive)
- AC50 (Cytochrome P450 3A4): 17.8 µM (inconclusive)
- IC50 [9]: > 69.5 µM (not active)

Compound: Cc1ccc(C2C3=C(O)CC(C)(C)CC3=Nc3nc(S)nc(O)c32)cc1 (stereo unspecified)
- Ki (fMet-Leu-Phe receptor): 47.9 µM (inactive)

Compound: O=C(Nc1ccc2ccccc2c1)c1ccccc1O
- EC50 (cells [10]): > 350 µM (not active)
- EC50 (cells [11]): 6.87 µM (active)
- EC50 [3]: > 67.6 µM (inactive)
- AC50 [4]: 6.02 µM (active)
- AC50 [12]: 7.8 µM (active)
- EC50 (cells [5]): > 67.6 µM (inactive)
- AC50 [6]: > 52 µM (inactive)
- AC50 [7]: 6.27 µM (active)
- AC50 [8]: 7.6 µM (active)

Compound: COc1cccc(-c2nc(-c3ccccn3)no2)c1
- EC50 [13]: 8.12 µM (active)
- EC50 (HT-1080): > 50 µM (not active)
- EC50 [14]: 4.73 µM (active)
- EC50 [15]: 6.27 µM (active)

Compound: Cc1csc(NC(=O)c2cc3c(s2)CCCC3)n1
- EC50 (HT-1080): 25.7 µM (active)
- EC50 [15]: 2.99 µM (active)

Compound: Cc1ccc(S(=O)(=O)Nc2ccc3c(c2)C(=O)N([C@@H](C)CO)C[C@H](C)[C@H](CN(C)Cc2ccc(C(F)(F)F)cc2)OCCCC[C@H](C)O3)cc1
- AC50 [16]: 29.8 µM (active)
- AC50 [17]: 25.4 µM (active)
- AC50 (Paired box protein Pax-8): 6.16 µM (active)
- AC50 [18]: 42.5 µM (active)

Compound: CCCn1c2c(c(O)c(C(=O)Nc3nccs3)c1=O)CCCC2
- IC50 (Prothrombin): > 50 µM (not active)

Compound: C[C@@H]1CCCCO[C@H](CN(C)Cc2ccc(Cl)c(Cl)c2)[C@H](C)CN([C@@H](C)CO)C(=O)c2cc(NS(=O)(=O)c3ccc(Cl)cc3)ccc2O1
- AC50 [16]: 24.6 µM (active)
- AC50 [17]: 33.7 µM (active)
- AC50 (Paired box protein Pax-8): 6.76 µM (active)
- AC50 [18]: 49.7 µM (active)

The next lines start with the values.

- IC50 [2]: 0.469 µM (active)
Compound: CC(C)(C)c1ccc(C(=O)c2c[nH]c(C(=O)O)c2)cc1

- EC50 [1]: > 50 µM (not active)
Compound: CCN(CC)S(=O)(=O)c1ccc(NC(=O)CN(c2cccc(F)c2)S(C)(=O)=O)cc1

- IC50 (Prothrombin): 1.39 µM (active)
Compound: O=C(CSc1nc(-c2ccccc2)nn1C(=O)c1ccccc1)Nc1cccc([N+](=O)[O-])c1

- EC50 [1]: > 50 µM (not active)
Compound: Cc1cc(NC(=O)CSc2nc3ccccc3[nH]2)no1

- EC50 (Ion channel NompC): > 29.9 µM (not active)
- EC50 (Mucolipin-3): 15.1 µM (not active)
Compound: O=S(=O)(c1ccc2ccccc2c1)N1CCCCC1

- IC50 [2]: 5.72 µM (active)
Compound: O=C(O)c1cc(N/N=C/c2cccnc2)ccc1Cl

- IC50 (Prothrombin): 0.949 µM (active)
Compound: Cc1cc(=O)oc2cc(OC(=O)c3ccco3)ccc12

- Ki (fMet-Leu-Phe receptor): 12 µM (active)
Compound: CCC(=O)Nc1c(C#N)c2nc3ccccc3nc2n1-c1ccccc1C

- AC50 (Cytochrome P450 1A2): 31.6 µM (inconclusive)
- Ki (fMet-Leu-Phe receptor): 19 µM (inactive)
- AC50 (Cytochrome P450 3A4): 25.1 µM (inconclusive)
Compound: COc1ccc(CCN2C(=O)C(O)=C(C(=O)c3ccco3)C2c2cccs2)cc1OC (stereo unspecified)
